Like-named read-outs stand apart in the source and are kept apart here.

For experiment [1], the target named is T1, canine TRPM8 (Canis lupus familiaris, UniProt Q1A7N1). The experiment can be described thus: In Vitro Canine TRPM8 Functional Assay (Ca2+ fluorescence, icilin activation). In kind it is cell-based. Conditions: for IC50: HEK293 cells stably expressing canine TRPM8, icilin activation, eight-point dose-response, read-out: IC50; for inhibition at 0.2 µM / % Inh @ 0.2 (μM): compound at 0.2 μM; for inhibition at 0.2 µM: read-out: % Inh @ 0.2. The essentials: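 Eight-point dose-response curves, each point averaging quadruplicate wells, gave EC50 or IC50. Canine TRPM8-expressing HEK293 cells, dye-loaded (Calcium 3), were pre-exposed 5 min to compound, then challenged with icilin at roughly EC80; intracellular Ca2+ read by FLIPR or FDSS fluorescence.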

The test system of experiment [2] is Male Sprague Dawley rats. Kind of experiment: Chronic Constriction Injury (CCI)-Induced Model of Neuropathic Pain, Acetone-Induced Hypersensitivity. In kind it is in vivo, rat. Particulars: Rattus norvegicus, po, Na salt form; for inhibition in vivo at 30 mg/kg: 30 mg/kg p.o.; for inhibition in vivo at 10 mg/kg: 10 mg/kg p.o. The text has this: Male Sprague Dawley rats (225-450 g; n=5-8/treatment) were used to evaluate the ability of selected compounds of the formula (I) to reverse CCI-induced cold hypersensitivity. Four loose ligatures of 4-0 chromic gut were surgically placed around the left sciatic nerve under inhalation anesthesia as described by Bennett et al (Bennett G J, Xie Y K. Pain 1988, 33(1): 87-107). Fourteen to 35 days following CCI surgery, subjects were placed in elevated observation chambers containing wire mesh floors and five applications of acetone (0.05 mL/application separated by approximately 5 minutes) were spritzed onto the plantar surface of the paw using a multidose syringe. An abrupt withdrawal or lifting of the paw was considered a positive response. The number of positive responses was recorded for each rat over the five trials. Following baseline withdrawal determinations, compounds of formula (I) are administered in an appropriate vehicle, such as hydroxypropyl-β-cyclodextrin (HP β CD), methylcellulose, Methocel, 10% Solutol, or H2O, or the like, by the appropriate route, i.p. or p.o. […] Results are presented as a percent inhibition of […], which was calculated for each subject as [1−(test compound withdrawals/pre-test withdrawals)]×100 and then averaged by treatment.

Experiment [3] has as its system Male Sprague Dawley rats. The experiment can be described thus: Inhibition of Icilin-Induced "Wet-Dog" Shakes in Rats. In kind it is in vivo, rat. Particulars: HPbCD, Na salt form. The protocol: Male Sprague Dawley rats (220-450 g, Charles River Labs, n=6-9/treatment) were used to evaluate the ability of selected compounds of the formula (I) to block icilin-induced “wet-dog” shakes (WDS). Compounds of the formula (I) were administered in an appropriate vehicle, such as hydroxypropyl-β-cyclodextrin (HPβCD), methocellulose, 10% Solutol, or H2O, or the like, by the appropriate route, i.p. or p.o., 30-120 minutes before icilin. Icilin was administered in PEG-400 or 10% solutol/H2O, at 1.0 or 3.0 mg/kg, i.p. and spontaneous “wet-dog” shakes were counted 10-20 minutes post-icilin. Results are presented as a percent inhibition of shakes, which was calculated as [1-(test compound WDS count/vehicle WDS count)]×100.

Experiment [4] has as its target T1, canine TRPM8. Kind of experiment: TRPM8 Patch Clamp Assays (whole-cell, menthol or cold activation). In kind it is cell-based. Particulars: cold stimulation. The protocol:
For patch clamp experiments, HEK293 cells are stably transfected with canine TRPM8 and cultured in DMEM supplemented with 10% fetal bovine serum, 100 units/ml penicillin, 100 μg/ml streptomycin and 1 mg/ml G418. Cells are maintained at 37° C. and in 5% CO2.
The extracellular solution contains (in mM): NaCl, 132; EGTA, 1; KCl, 5.4; MgCl2, 0.8; HEPES, 10; glucose, 10; pH=7.4. Recordings are performed using the conventional whole-cell patch clamp technique, 1-2 days after plating cells onto glass coverslips at densities appropriate for single cell recording. Currents are amplified by a patch clamp amplifier and filtered at 2 kHz (Axopatch 200B, Molecular Devices, Union City, Calif.). Menthol (100 μM) is applied to the cell at 0.5 ml/min via a gravity-fed perfusion system. Recordings involving menthol activation are performed at 22° C.
In experiments where temperatures are varied, temperature ramps are generated by cooling the perfusate in an in-line cooler (Model SC-20, Warner Instruments, Hamden, Conn.) controlled by a temperature controller (Model CL-100, Warner Instruments). The temperature in the vicinity of the recorded cell is measured with a custom-made miniature thermo-microprobe connected to a monitoring thermometer (Model TH-8, Physitemp, Clifton, N.J.), and sampled using Digidata 1322A and pClamp 9.0 (Molecular Devices), as are the currents concurrently measured in the whole-cell patch clamp mode. The current is continuously sampled (at 100 Hz) at a holding potential of −60 mV.
Compounds of the formula (I) are diluted from 10 mM DMSO stocks (stored at −20° C.) into an extracellular solution either containing 100 μM menthol or subjected to cooling. Increasing concentrations of a compound are applied to a cell in a cumulative manner and concentration-dependent responses are measured after steady-state activation is achieved by either 100 μM menthol or cooling to 10° C. A saturating concentration of a reference antagonist is applied at the end of an experiment (either in the presence of 100 μM menthol or 10° C. temperature) to establish the baseline from which all the other measurements are subtracted.
Percentage inhibition by a compound is calculated as follows:
100×(1−Icomp/I0); where Icomp and I0 are steady-state current amplitudes in either the presence or absence of a concentration of compounds of the formula (I).
(In general: In patch-clamp work, channel activity is measured electrically.)

Setting [5] is: canine TRPM8, icilin activation.
[6] abbreviates: 3 h, Water, pretreatment 3 hr, read-out: Percent Inhibition.
Where [7] appears, read: 3 h, HPbCD, pretreatment 3 hr, read-out: Percent Inhibition.
Setting [8] is: 4 h, Water, pretreatment 4 hr, read-out: Percent Inhibition.
Where [9] appears, read: dose 30 p.o., 30 min pre-icilin.
Where [10] appears, read: dose 10 p.o., 60 min pre-icilin.

T1 sequence (Q1A7N1 1-1104): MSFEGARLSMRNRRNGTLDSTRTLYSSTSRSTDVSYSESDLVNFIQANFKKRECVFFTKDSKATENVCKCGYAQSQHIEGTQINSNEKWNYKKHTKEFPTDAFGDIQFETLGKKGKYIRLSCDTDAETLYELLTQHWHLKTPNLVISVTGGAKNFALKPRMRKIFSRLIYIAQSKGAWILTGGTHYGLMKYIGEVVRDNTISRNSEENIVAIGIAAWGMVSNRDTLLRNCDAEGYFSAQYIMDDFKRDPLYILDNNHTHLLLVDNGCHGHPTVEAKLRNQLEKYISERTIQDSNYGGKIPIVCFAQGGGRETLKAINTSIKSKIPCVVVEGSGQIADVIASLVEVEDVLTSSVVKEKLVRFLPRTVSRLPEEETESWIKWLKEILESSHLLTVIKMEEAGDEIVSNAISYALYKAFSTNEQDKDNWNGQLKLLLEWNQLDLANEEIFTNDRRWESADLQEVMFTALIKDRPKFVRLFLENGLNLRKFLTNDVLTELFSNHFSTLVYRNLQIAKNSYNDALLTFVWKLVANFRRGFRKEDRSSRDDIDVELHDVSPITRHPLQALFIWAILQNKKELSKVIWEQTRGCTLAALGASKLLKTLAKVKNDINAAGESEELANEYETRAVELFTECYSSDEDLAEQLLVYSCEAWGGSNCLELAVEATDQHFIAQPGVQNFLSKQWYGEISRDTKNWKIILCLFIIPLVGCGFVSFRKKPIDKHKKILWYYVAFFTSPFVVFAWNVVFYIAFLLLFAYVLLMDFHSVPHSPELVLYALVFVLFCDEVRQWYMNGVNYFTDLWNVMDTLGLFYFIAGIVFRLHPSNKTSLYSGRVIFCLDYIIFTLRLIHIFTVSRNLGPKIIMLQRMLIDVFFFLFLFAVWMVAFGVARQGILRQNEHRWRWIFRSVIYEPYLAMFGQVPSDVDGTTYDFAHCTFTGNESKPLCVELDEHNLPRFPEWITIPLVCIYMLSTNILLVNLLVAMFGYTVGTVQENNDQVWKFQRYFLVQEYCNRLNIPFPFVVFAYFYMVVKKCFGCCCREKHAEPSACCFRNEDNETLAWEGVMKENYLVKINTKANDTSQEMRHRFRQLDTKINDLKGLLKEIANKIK

On to `O=C(O)c1ccc(S(=O)(=O)N(Cc2ccc(F)c(C(F)(F)F)c2)c2sc3ccccc3c2Br)cc1` [Compound 292, N-(3-Bromo-benzo[b]thiophen-2-yl)-N-(4-fluoro-3-trifluoromethyl-benzyl)-4-carboxy-benzenesulfonamide], for which, at canine TRPM8 [1], the IC50 (as a rule, the midpoint of a concentration-inhibition curve) is 0.8 nM. The inhibition at 0.2 µM at canine TRPM8 [1] (setting [5]) is 98%. Also, the inhibition at 0.5 µM on canine TRPM8 [1] (compound at 0.5 μM, canine TRPM8, icilin activation, read-out: % Inh @ 0.5) turned out to be 100%. Further, in the experiment with Male Sprague Dawley rats [2] (2 h, Water, pretreatment 2 hr, read-out: Percent Inhibition), the inhibition in vivo at 30 mg/kg was found to be 60%. In addition, the inhibition in vivo at 3 mg/kg with Male Sprague Dawley rats [2] (3 h, 3 mg/kg p.o., Water, pretreatment 3 hr, read-out: Percent Inhibition) stood at 7%. For the same compound, in the experiment on Male Sprague Dawley rats [2] (setting [6]), the inhibition in vivo at 10 mg/kg came out at 16% and the inhibition in vivo at 30 mg/kg was 21%. Besides, in the experiment with Male Sprague Dawley rats [2] (3 h, 100 mg/kg p.o., Water, pretreatment 3 hr, read-out: Percent Inhibition), the inhibition in vivo at 100 mg/kg was found to be 67%. The ED50 (in general, the dose that gives a 50% effect, or the effect in half of the subjects) in the experiment on Male Sprague Dawley rats [2] (Water, pretreatment 3 hr) turned out to be 70 mg/kg.

On to `Cc1c(N(Cc2ccc(F)cc2)S(=O)(=O)c2ccc(C(=O)O)cc2)sc2ccccc12` [Compound 487, N-(3-Methyl-benzo[b]thiophen-2-yl)-N-(4-fluoro-benzyl)-4-carboxy-benzenesulfonamide], for which, on canine TRPM8 [1], the IC50 came to 2 nM. At canine TRPM8 [1] (setting [5]), the inhibition at 0.2 µM was determined as 101%. Further, in the experiment on Male Sprague Dawley rats [2] (setting [7]), the inhibition in vivo at 10 mg/kg was 43% and the inhibition in vivo at 30 mg/kg is 66%.

Take `Cc1c(N(Cc2ccc(C(F)(F)F)c(F)c2)S(=O)(=O)c2ccc(C(=O)O)cc2)sc2ccccc12` [Compound 497, N-(3-Methyl-benzo[b]thiophen-2-yl)-N-(3-fluoro-4-trifluoromethyl-benzyl)-4-carboxy-benzenesulfonamide]: on canine TRPM8 [1], the IC50 came to 0.4 nM. The inhibition at 0.2 µM at canine TRPM8 [1] (setting [5]) was found to be 101%. Also, the inhibition in vivo at 30 mg/kg with Male Sprague Dawley rats [2] (setting [8]) was 60%.

Regarding `CCCCN(c1sc2ccccc2c1C)S(=O)(=O)c1ccc(C(=O)[O-])cc1.[Na+]` [Compound 398, Sodium, N-(Butyl)-N-(3-methylbenzo[b]thiophen-2-yl)-4-carboxy-benzenesulfonamide], at canine TRPM8 [1], the IC50 was 6 nM. On canine TRPM8 [1] (setting [5]), the “% Inh @ 0.2 (μM)” value came out at 101%. The % Inhibition (as a rule, the drop in the measured response relative to a control, in per cent) with Male Sprague Dawley rats [3] (setting [9]) is 7%.

On to `Cc1c(N(CCC(F)(F)F)S(=O)(=O)c2ccc(C(=O)[O-])cc2)sc2ccccc12.[Na+]` [Compound 409, Sodium, N-(3-Methylbenzo[b]thiophen-2-yl)-N-(3,3,3-trifluoro-propyl)-4-carboxy-benzenesulfonamide], for which the IC50 at canine TRPM8 [1] came out at 10 nM. Moreover, the “% Inh @ 0.2 (μM)” value at canine TRPM8 [1] (setting [5]) worked out at 101%. Moreover, in the experiment on Male Sprague Dawley rats [3] (setting [9]), the “% Inhibition” value turned out to be 16%.

With `Cc1c(N(Cc2ccc(F)c(Cl)c2)S(=O)(=O)c2ccc(C(=O)O)cc2)sc2ccccc12` [Compound 489, N-(3-Methyl-benzo[b]thiophen-2-yl)-N-(4-fluoro-3-chloro-benzyl)-4-carboxy-benzenesulfonamide], the IC50 at canine TRPM8 [1] is 0.6 nM. In addition, the inhibition at 0.2 µM at canine TRPM8 [1] (setting [5]) is 101%. For the same compound, the inhibition in vivo at 30 mg/kg with Male Sprague Dawley rats [2] (setting [6]) was determined as 86%. For the same compound, in the experiment with Male Sprague Dawley rats [2] (setting [8]), the inhibition in vivo at 10 mg/kg came to 13% and the inhibition in vivo at 30 mg/kg turned out to be 57%. The inhibition in vivo at 17.8 mg/kg in the experiment with Male Sprague Dawley rats [2] (4 h, 17.8 mg/kg p.o., Water, pretreatment 4 hr, read-out: Percent Inhibition) was 60%. The inhibition in vivo at 56 mg/kg with Male Sprague Dawley rats [2] (4 h, 56 mg/kg p.o., Water, pretreatment 4 hr, read-out: Percent Inhibition) came out at 70%. Besides, the ED50 in the experiment with Male Sprague Dawley rats [2] (Water, pretreatment 4 hr) was determined as 23 mg/kg.

Take `Cc1c(N(Cc2ccc(F)c(F)c2)S(=O)(=O)c2ccc(C(=O)O)cc2)sc2ccccc12` [Compound 488, N-(3-Methyl-benzo[b]thiophen-2-yl)-N-(3,4-difluoro-benzyl)-4-carboxy-benzenesulfonamide]: the IC50 on canine TRPM8 [1] was 1 nM. For the same compound, the inhibition at 0.2 µM on canine TRPM8 [1] (setting [5]) was found to be 101%. Also, in the experiment on Male Sprague Dawley rats [2] (2 h, HPbCD, pretreatment 2 hr, read-out: Percent Inhibition), the inhibition in vivo at 30 mg/kg was 43%.

On to `CC(C)(O)c1c(N(CCCCC(F)(F)F)S(=O)(=O)c2ccc(C(=O)[O-])cc2)sc2ccccc12.[Na+]` [Compound 658, Sodium, N-(3-(1-Hydroxy-1-methyl-ethyl)-benzo[b]thiophen-2-yl)-N-(5,5,5-trifluoro-pentyl)-4-carboxy-benzenesulfonamide], for which the IC50 at canine TRPM8 [1] stood at 4.3 nM. The “% Inh @ 0.2 (μM)” value on canine TRPM8 [1] (setting [5]) was found to be 101%. Also, in the experiment on Male Sprague Dawley rats [3] (setting [10]), the “% Inhibition” value is 63%.

With `CC(C)(O)c1c(N(CCC2CC2)S(=O)(=O)c2ccc(C(=O)[O-])cc2)sc2ccccc12.[Na+]` [Compound 657, Sodium, N-(2-Cyclopropyl-ethyl)-N-(3-(1-hydroxy-1-methyl-ethyl)-benzo[b]thiophen-2-yl)-4-carboxy-benzenesulfonamide], the IC50 at canine TRPM8 [1] is 7.5 nM. For the same compound, at canine TRPM8 [1] (setting [5]), the “% Inh @ 0.2 (μM)” value is on record as 101%. Moreover, the “% Inhibition” value in the experiment with Male Sprague Dawley rats [3] (setting [10]) turned out to be 32%.

Regarding `CCS(=O)(=O)N(CCN1CCOCC1)c1sc2ccccc2c1C(C)O` (stereo not drawn) [Compound 284, N-(3-(1-Hydroxyethyl)benzo[b]thiophen-2-yl)-N-(2-morpholinoethyl)-ethanesulfonamide], at canine TRPM8 [1] (setting [5]), the inhibition at 0.2 µM amounted to 15%. Besides, the IC50 against canine TRPM8 [4] is 8 nM. The inhibition at 0.003 µM on canine TRPM8 [4] (0.003 μM) was 24%. Further, the inhibition at 0.01 µM against canine TRPM8 [4] (0.01 μM) is 71%.

Take `Cc1c(N(Cc2ccc3c(c2)OC(F)(F)O3)S(=O)(=O)c2ccc(C(=O)O)cc2)sc2ccccc12` [Compound 524, N-(3-Methyl-benzo[b]thiophen-2-yl)-N—(C-(2,2-difluoro-benzo[1,3]dioxol-5-yl)-methyl)-4-carboxy-benzenesulfonamide]: the inhibition at 0.2 µM at canine TRPM8 [1] (setting [5]) amounted to 102%. For the same compound, the inhibition in vivo at 30 mg/kg with Male Sprague Dawley rats [2] (setting [7]) was found to be 46%.

Turning to `Cc1c(N(Cc2ccc(OC(F)F)cc2)S(=O)(=O)c2ccc(C(=O)O)cc2)sc2ccccc12` [Compound 490, N-(3-Methyl-benzo[b]thiophen-2-yl)-N-(4-difluoromethoxy-benzyl)-4-carboxy-benzenesulfonamide], at canine TRPM8 [1], the IC50 is 1 nM. Besides, the inhibition at 0.2 µM on canine TRPM8 [1] (setting [5]) was determined as 101%. Besides, the inhibition in vivo at 30 mg/kg with Male Sprague Dawley rats [2] (1 h, HPbCD, pretreatment 1 hr, read-out: Percent Inhibition) came to 23%.
